Data: PubChem BioAssay (NCI)
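Dose response: 5 concentrations. Exposure: 48 h. Format: 96-well plates. Endpoint: linear interpolation; highest concentration if not reached. Here, GI50 denotes the concentration required for 50% inhibition of growth. Definition used: TGI = concentration required for complete inhibition of growth.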

Experiments:
Test in all cases: NCI anticancer screen, dose series, 48 h
HCT-15 colon = tested on: HCT-15 colon
COLO 205 colon = tested on: COLO 205 colon
OVCAR-8 ovarian = tested on: OVCAR-8 ovarian
SF-268 CNS = tested on: SF-268 CNS
OVCAR-3 ovarian = tested on: OVCAR-3 ovarian
A549 NSCLC = tested on: A549 NSCLC
NCI-H522 lung = tested on: NCI-H522 lung
UO-31 renal = tested on: UO-31 renal
NCI/ADR-RES ovarian = tested on: NCI/ADR-RES ovarian
DU-145 prostate = tested on: DU-145 prostate

Row | Compound | TGI (HCT-15 colon) | TGI (COLO 205 colon) | TGI (OVCAR-8 ovarian) | TGI (SF-268 CNS) | TGI (OVCAR-3 ovarian) | TGI (A549 NSCLC) | TGI (NCI-H522 lung) | TGI (UO-31 renal) | GI50 (HCT-15 colon) | GI50 (COLO 205 colon) | GI50 (OVCAR-8 ovarian) | GI50 (UO-31 renal) | GI50 (SF-268 CNS) | GI50 (OVCAR-3 ovarian) | GI50 (A549 NSCLC) | GI50 (NCI-H522 lung) | GI50 (NCI/ADR-RES ovarian) | TGI (NCI/ADR-RES ovarian) | GI50 (DU-145 prostate) | TGI (DU-145 prostate)
1 | COC1CC(OS(=O)(=O)c2ccc([N+](=O)[O-])cc2)C(OC(=O)c2ccccc2)C(C)O1 (configuration not stated) | > 100 µM | > 100 µM | > 100 µM | > 100 µM | > 100 µM | > 100 µM | > 100 µM | – | – | – | – | – | – | – | – | – | – | – | – | –
2 | CC(C)C1CC[C@@H](C)C[C@@]1(O)CC(N)=O (some centres not stated) | > 100 µM | > 100 µM | > 100 µM | – | > 100 µM | > 100 µM | > 100 µM | > 100 µM | – | – | – | – | – | – | – | – | – | – | – | –
3 | COc1ccc2c(c1)c(=O)oc1cc(OC/C(C)=N\O)ccc12 | > 100 µM | > 100 µM | > 100 µM | > 100 µM | > 100 µM | > 100 µM | > 100 µM | > 100 µM | > 100 µM | > 100 µM | > 100 µM | 33.3 µM | 37.7 µM | > 100 µM | > 100 µM | 44.5 µM | > 100 µM | > 100 µM | > 100 µM | > 100 µM
4 | COc1cc2ccc(/C=C\[N+](=O)[O-])cc2cc1OC | 17.2 µM | 15.9 µM | 9.72 µM | 11 µM | 18.1 µM | 29.8 µM | 3.4 µM | 3.36 µM | – | – | – | – | – | – | – | – | – | 17.2 µM | – | 4.39 µM
5 | CC(=O)OCC1OC(n2cnc(C(N)=S)c2N)C(OC(C)=O)C1OC(C)=O (configuration not stated) | > 100 µM | > 100 µM | > 100 µM | > 100 µM | > 100 µM | > 100 µM | > 100 µM | > 100 µM | – | – | – | – | – | – | – | – | – | > 100 µM | – | > 100 µM
6 | CCOC(=O)N1CCN(C=S)CC1 | > 100 µM | > 100 µM | > 100 µM | > 100 µM | > 100 µM | > 100 µM | > 100 µM | > 100 µM | – | – | – | – | – | – | – | – | – | – | – | –
7 | O=[N+]([O-])O.[Cu+2].[NH-]CC[NH-].[NH-]CC[NH-] | > 10 µM | > 10 µM | > 10 µM | > 10 µM | > 10 µM | > 10 µM | > 10 µM | > 10 µM | > 10 µM | > 10 µM | > 10 µM | > 10 µM | > 10 µM | > 10 µM | > 10 µM | > 10 µM | > 10 µM | > 10 µM | > 10 µM | > 10 µM
8 | COc1cc([C@@H]2OC[C@@H]3C(c4cc(OC)c5c(c4)OCO5)OC[C@@H]32)cc(OC)c1OC (some centres not stated) | > 100 µM | > 100 µM | > 100 µM | > 100 µM | > 100 µM | > 100 µM | > 100 µM | > 100 µM | – | – | – | – | – | – | – | – | – | > 100 µM | – | > 100 µM
9 | Cn1cc(C(=O)NCCC(=N)N)cc1NC(=O)C1=[N+](C)C=C(NC(=O)c2cccc(C(=O)NC3=CC(C(=O)Nc4cc(C(=O)NCCC(=N)N)cn4C)=[N+](C)C3)c2)C1 | > 100 µM | > 100 µM | > 100 µM | > 100 µM | > 100 µM | > 100 µM | > 100 µM | > 100 µM | – | – | – | – | – | – | – | – | – | – | – | –
10 | CCC1C2Cc3ccc(O)cc3C1(CC)CCN2C (configuration not stated) | > 100 µM | > 100 µM | > 100 µM | > 100 µM | > 100 µM | > 100 µM | > 100 µM | > 100 µM | – | – | – | – | – | – | – | – | – | > 100 µM | – | > 100 µM
11 | Nc1ccnc(=O)[nH]1 | > 100 µM | > 100 µM | > 100 µM | > 100 µM | > 100 µM | > 100 µM | > 100 µM | > 100 µM | – | – | – | – | – | – | – | – | – | – | – | –
12 | COc1ccc(-c2cc(=O)[nH]c3c(OC)c4ccccc4c(OC)c23)cc1 | > 100 µM | 3.52 µM | > 100 µM | > 100 µM | 0.713 µM | > 100 µM | 3.26 µM | > 100 µM | 0.419 µM | 0.424 µM | 1.29 µM | 0.725 µM | 0.552 µM | 0.165 µM | 0.708 µM | 0.284 µM | 0.291 µM | – | 0.671 µM | > 100 µM
13 | COc1ccc(C(=O)c2cc(OC)c(OC)c(OC)c2)cc1OC(=O)CCl | > 100 µM | 15.6 µM | > 100 µM | > 100 µM | – | > 100 µM | > 100 µM | > 100 µM | < 0.0132 µM | 1.21 µM | 0.052 µM | 0.373 µM | 0.106 µM | 0.0287 µM | 0.164 µM | 0.0196 µM | < 0.0167 µM | > 100 µM | 0.0322 µM | –
14 | CCCCNc1nc(C#N)c(N)s1 | > 100 µM | > 100 µM | > 100 µM | > 100 µM | > 100 µM | > 100 µM | > 100 µM | > 100 µM | – | – | – | – | – | – | – | – | – | – | – | –
15 | COc1cc([N+](=O)[O-])c(OC)cc1-c1nc2sc(Cl)cn2c1/C(N)=N/C(=N)N | > 100 µM | 6.67 µM | – | 11.8 µM | 3.45 µM | > 53 µM | 5.49 µM | > 61.8 µM | 65 µM | 2.71 µM | – | 26.2 µM | 4.17 µM | 1.72 µM | 18.4 µM | 2.35 µM | 61.4 µM | > 100 µM | 7.2 µM | 27.9 µM
16 | O=C(O)C(SC(=S)c1ccc(C(=S)SC(C(=O)O)c2ccccc2)cc1)c1ccccc1 (configuration not stated) | > 100 µM | – | > 100 µM | > 100 µM | > 100 µM | > 100 µM | – | > 100 µM | – | – | – | – | – | – | – | – | – | – | – | –
17 | CCc1cc(C(=O)OC)cn1C(=N)c1ccc(Cl)cc1 | > 100 µM | > 100 µM | > 100 µM | > 100 µM | > 100 µM | > 100 µM | – | > 100 µM | – | – | – | – | – | – | – | – | – | – | – | –
18 | COc1cnc2c(c1)C(=O)c1c-2n(CCCn2ccnc2)c(=O)c2cc(F)ccc12 | 1.56 µM | 0.297 µM | 13.9 µM | – | 0.382 µM | 1.5 µM | 0.169 µM | 0.147 µM | 0.155 µM | 0.0228 µM | 0.0151 µM | < 0.01 µM | – | 0.0437 µM | 0.0209 µM | < 0.01 µM | 0.0193 µM | > 100 µM | < 0.01 µM | 1.17 µM
